pEC50: −log10 of the molar value.
What was measured:
RSV (Long strain) = experiment: RSV plaque assay with Hep-2 cell monolayers; assay type: cell-based; conditions: for pEC50: human respiratory syncytial virus, 144 h, Hep-2 cell monolayers, RSV Long strain, 6 days of incubation, 0.4-50 μM in triplicate, read-out: Effective Conc. (EC50) RSV Plaque Count
Protocol: The ability of the active compounds to inhibit the growth of RSV was determined using a standard plaque assay with Hep-2 cell monolayers. The cell monolayers were infected with RSV (Long strain obtained from the American Tissue Culture Catalog, Cat# VR-26). After one hour of virus attachment, the cells were overlaid with medium containing methyl cellulose with or without serial concentrations of compound (0.4-50 μM). Each concentration was tested in triplicate. After 6 days of incubation, the overlay medium was aspirated and the cells fixed with absolute ethanol and stained with crystal violet to visualize RSV plaques and cell cytotoxicity using a 4× dissecting microscope. To determine the percent inhibition of RSV plaque formation, the mean number of RSV plaques in the presence of compound was divided by the number of RSV plaques in the control without added compounds. The quotient was subtracted from 1 and then multiplied by 100% to establish the % inhibition.

[1] = Toxicity test, 3H-thymidine incorporation (total DNA synthesis, cell growth); assay type: cell-based; conditions: cells in growth phase (cell line not given); 48 hours treatment, 6 hours 3H-thymidine pulse; highest concentration evaluated 100 μM; read-out: Toxic Conc. (TC50) Cell Growth
Protocol: Cells in growth phase were treated with serial concentrations of compound for 48 hours and pulse labeled with 3H-thymidine for 6 hours. The cells were then harvested to measure total DNA synthesis in the presence or absence of the compound (Kucera et al., Antiviral Chemistry and Chemotherapy, 9: i57-i65 (1998)).
TC50 determinations were calculated by the method of Chou et al. Elsvier: Amsterdam, 1985, as described in Piantadosi C. et al., Journal of Medicinal Chemistry, 34: 1408-1414 (1991). The TC50 for KPC-15 and KPC-11 were unable to be determined since at the highest concentration evaluated (100 μM), 50% toxicity was not observed. Thus, KPC-15 and KPC-11, lacked significant toxicity in vitro with the TC50>100 μM.

Row | pEC50 (RSV (Long strain)) | Structure (SMILES) | SI (Selectivity Index: TC50 Cell Growth divided by EC50 Plaque Inhibition) (RSV (Long strain)) | in vitro activity against RSV (in words) (RSV (Long strain)) | CC50 at 48 h [1]
1 | 5.62 | CCCCCCCCCCCC(=O)NCC(COP(=O)([O-])OCC[N+](C)(C)C)OCC (centres unmarked) [KPC-15, 3-dodecylamido-2-ethoxypropylphosphocholine] | >42 | potent in vitro activity against RSV | > 100 µM
2 | 5.46 | CCCCCCCCCC(=O)NCC(COP(=O)([O-])OCC[N+](C)(C)C)OCC (centres unmarked) [KPC-11, decylamido-2-ethoxypropylphosphocholine] | >28 | potent in vitro activity against RSV | > 100 µM

Reference: patent US20050187191A1, “Methods and compositions for the treatment of respiratory syncytial virus” (priority 2004, published 2005)
